The values below are quoted from earlier work in US8288366B2, “Formulation for hair growth” (priority 2006, dated 2012).

The subject of this data set is mice with a mutant hairless gene. The conditions noted are these: applied topically.

Regarding `N[C@@H](Cc1cc(I)c(Oc2ccc(O)c(I)c2)c(I)c1)C(=O)O` [T3, triiodothyronine], the hair growth result is on record as “stimulate hair growth”.
